Measurements published in PubChem BioAssay AID1259411 (Chemical Carcinogenesis Research Information System (CCRIS), 2018).
Active and inactive are the calls of the source. How the calls were made is not given here.

System: rodent carcinogenicity bioassays, tumor incidence
Test: CCRIS carcinogenicity studies
Method in brief: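 NCI-built, expert-reviewed records of carcinogenicity and related test outcomes (mutagenicity, tumor promotion/inhibition) compiled from published and report sources, historical span 1985-2011, not updated.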

SMILES: Cn1c(N)nc2ncc(-c3ccccc3)cc21
- carcinogen call (Species: HAMSTER, Strain/Sex: RAPID ACETYLATOR CONGENIC/MALE, Route: ORAL, Dose: 75 MG/KG BW/DOSE BY GAVAGE, 2 DOSES/WK FOR 4 WK FOLLOWED BY 1 DOSE/WK FOR 1 WK AND 1 DOSE/2 WK FOR 4 WK, FOLLOWED BY A H): inactive; negative
- carcinogen call (Species: HAMSTER, Strain/Sex: SLOW ACETYLATOR CONGENIC/MALE, Route: ORAL, Dose: 75 MG/KG BW/DOSE BY GAVAGE, 2 DOSES/WK FOR 4 WK FOLLOWED BY 1 DOSE/WK FOR 1 WK AND 1 DOSE/2 WK FOR 4 WK, FOLLOWED BY A H): inactive; negative
- carcinogen call (Species: MOUSE, Strain/Sex: B6C3F1/MALE, Route: INTRAPERITONEAL, Dose: 0, 0.625 UMOL IN 35 µL DMSO ON D 1, 8, AND 15 AFTER BIRTH (STUDY DURATION: 8 MO)): inactive; negative
- carcinogen call (Species: MOUSE, Strain/Sex: B6C3F1/MALE, Route: INTRAPERITONEAL, Dose: 0, 0.625 UMOL IN 35 µL DMSO ON D 1, 8, AND 15 AFTER BIRTH (STUDY DURATION: 12 MO), Tumor Site: Type of Lesion: LIVER: HEPATOCELLULAR ADENOMA): active; positive
- carcinogen call (Species: MOUSE, Strain/Sex: B6C3F1/MALE, Route: INTRAPERITONEAL, Dose: 0, 1.25 UMOL IN 35 µL DMSO ON D 1, 8, AND 15 AFTER BIRTH (STUDY DURATION: 8 MO), Tumor Site: Type of Lesion: LIVER: HEPATOCELLULAR ADENOMA): active; positive
- carcinogen call (Species: MOUSE, Strain/Sex: B6C3F1/MALE, Route: INTRAPERITONEAL, Dose: 0, 1.25 UMOL IN 35 µL DMSO ON D 1, 8, AND 15 AFTER BIRTH (STUDY DURATION: 12 MO), Tumor Site: Type of Lesion: LIVER: HEPATOCELLULAR ADENOMA, HEPATOCELLULAR CARCINOMA): active; positive
- carcinogen call (Species: MOUSE, Strain/Sex: C57/FEMALE, Route: ORAL, Dose: 0, 300 PPM IN HIGH FAT DIET FOR 40 WK, FOLLOWED BY CONTINUOUS FEEDING OF HIGH FAT DIET UNTIL STUDY TERMINATION (STUDY DU, Tumor Site: Type of Lesion: SMALL INTESTINE: ADENOCARCINOMAS OR ADENOMAS): active; positive
- carcinogen call (Species: MOUSE, Strain/Sex: C57/MALE, Route: ORAL, Dose: 0, 300 PPM IN HIGH FAT DIET FOR 40 WK, FOLLOWED BY CONTINUOUS FEEDING OF HIGH FAT DIET UNTIL STUDY TERMINATION (STUDY DU, Tumor Site: Type of Lesion: SMALL INTESTINE: ADENOCARCINOMAS OR ADENOMAS, LYMPHATIC SYSTEM: LYMPHOMA): active; positive
- carcinogen call (Species: MOUSE, Strain/Sex: CDF1/FEMALE, Route: ORAL, Dose: 0, 0.04% IN THE DIET FOR DURATION OF STUDY (STUDY DURATION: 579 D), Tumor Site: Type of Lesion: HEMATOPOIETIC SYSTEM: LYMPHOMA): active; positive
- carcinogen call (Species: MOUSE, Strain/Sex: CDF1/MALE, Route: ORAL, Dose: 0, 0.04% IN THE DIET FOR DURATION OF STUDY (STUDY DURATION: 579 D), Tumor Site: Type of Lesion: HEMATOPOIETIC SYSTEM: LYMPHOMA): active; positive
- carcinogen call (Species: MOUSE, Strain/Sex: EU-PIM-1/FEMALE, Route: ORAL, Dose: 0, 0.03% IN DIET FOR 31 WK (STUDY DURATION: 31 WK)): inactive; negative
- carcinogen call (Species: MOUSE, Strain/Sex: EU-PIM-1/MALE, Route: ORAL, Dose: 0, 0.03% IN DIET FOR 31 WK (STUDY DURATION: 31 WK)): inactive; negative
- carcinogen call (Species: MOUSE, Strain/Sex: NON-TRANSGENIC WILD-TYPE/FEMALE, Route: ORAL, Dose: 0, 0.03% IN DIET FOR 31 WK (STUDY DURATION: 31 WK)): inactive; negative
- carcinogen call (Species: MOUSE, Strain/Sex: NON-TRANSGENIC WILD-TYPE/MALE, Route: ORAL, Dose: 0, 0.03% IN DIET FOR 31 WK (STUDY DURATION: 31 WK)): inactive; negative
- carcinogen call (Species: MOUSE, Strain/Sex: TRANSGENIC EU-PIM-1/FEMALE, Route: ORAL, Dose: 0, 0.03% IN DIET FOR 31 WK (STUDY DURATION: 31 WK), Tumor Site: Type of Lesion: LYMPHATIC SYSTEM: LYMPHOMA): active; positive
- carcinogen call (Species: MOUSE, Strain/Sex: TRANSGENIC EU-PIM-1/MALE, Route: ORAL, Dose: 0, 0.03% IN DIET FOR 31 WK (STUDY DURATION: 31 WK)): inactive; negative
- carcinogen call (Species: MOUSE, Strain/Sex: WILD-TYPE/FEMALE, Route: ORAL, Dose: 0, 0.03% IN DIET FOR 31 WK (STUDY DURATION: 31 WK)): inactive; negative
- carcinogen call (Species: MOUSE, Strain/Sex: WILD-TYPE/MALE, Route: ORAL, Dose: 0, 0.03% IN DIET FOR 31 WK (STUDY DURATION: 31 WK)): inactive; negative
- carcinogen call (Species: RAT, Strain/Sex: F344/FEMALE, Route: ORAL, Dose: 0, 25, 100 PPM IN DIET FOR 104 WK (STUDY DURATION: 104 WK), Dose: 0, 25, 100 PPM IN DIET FOR 104 WK (STUDY DURATION: 104 WK), Tumor Site: Type of Lesion: MAMMARY GLAND: ADENOCARCINOMA): active; positive
- carcinogen call (Species: RAT, Strain/Sex: F344/FEMALE, Route: ORAL, Dose: 0, 400 PPM IN DIET FOR 52 WK (STUDY DURATION: 52 WK), Tumor Site: Type of Lesion: MAMMARY GLAND: ADENOCARCINOMA): active; positive
- carcinogen call (Species: RAT, Strain/Sex: F344/MALE, FEMALE, Route: MATERNAL MILK, Dose: 200 PPM IN DIET TO MOTHERS FROM D OF MATING TO WEANING, THEN OFFSPRING ON CONTROL DIET FOR 60 WKS (STUDY DURATION: 63 WK): inactive; negative; prostate and colon tumors not enhanced; multiplicity of aberrant crypt
- carcinogen call (Species: RAT, Strain/Sex: F344/MALE, Route: ORAL, Dose: 0, 25, 100 PPM IN DIET FOR 104 WK (STUDY DURATION: 104 WK), Dose: 0, 25, 100 PPM IN DIET FOR 104 WK (STUDY DURATION: 104 WK), Tumor Site: Type of Lesion: COLON: CARCINOMA): active; positive
- carcinogen call (Species: RAT, Strain/Sex: F344/MALE, Route: ORAL, Dose: 0, 100, 300 PPM IN DIET FOR 40 WK (STUDY DURATION: 40 WK), Dose: 0, 100, 300 PPM IN DIET FOR 40 WK (STUDY DURATION: 40 WK), Tumor Site: Type of Lesion: PROSTATE (VENTRAL): PROSTATIC INTRAEPITHELIAL NEOPLASIA): active; positive
- carcinogen call (Species: RAT, Strain/Sex: F344/MALE, Route: ORAL, Dose: 0, 400 PPM IN DIET FOR 52 WK (STUDY DURATION: 52 WK), Tumor Site: Type of Lesion: COLON: ADENOCARCINOMA): active; positive
- carcinogen call (Species: RAT, Strain/Sex: F344/MALE, Route: ORAL, Dose: 0, 400 PPM IN DIET FOR 52 WK (STUDY DURATION: 52 WK), Tumor Site: Type of Lesion: PROSTATE (VENTRAL): CARCINOMA): active; positive
- carcinogen call (Species: RAT, Strain/Sex: SPRAGUE DAWLEY/FEMALE, 43 D OLD, Route: ORAL, Dose: 75 MG/DOSE, 10 DOSES GIVEN ONCE/D OVER 12 D (STUDY DURATION: 6 MO), Tumor Site: Type of Lesion: MAMMARY GLAND): active; positive (5% incidence)
- carcinogen call (Species: RAT, Strain/Sex: SPRAGUE DAWLEY/FEMALE, 150 D OLD, Route: ORAL, Dose: 75 MG/DOSE, 10 DOSES GIVEN ONCE/D OVER 12 D (STUDY DURATION: 6 MO), Tumor Site: Type of Lesion: MAMMARY GLAND): inactive; negative (0% incidence)
- carcinogen call (Species: RAT, Strain/Sex: SPRAGUE-DAWLEY/FEMALE, Route: ORAL, Dose: 0, 12.5, 50 PPM IN DIET FOR DURATION OF STUDY (STUDY DURATION: 48 WK), Dose: 0, 12.5, 50 PPM IN DIET FOR DURATION OF STUDY (STUDY DURATION: 48 WK), Tumor Site: Type of Lesion: MAMMARY GLAND: TUMOR): active; positive
- carcinogen call (Species: RAT, Strain/Sex: SPRAGUE-DAWLEY/FEMALE, Route: ORAL, Dose: 0, 25, 100, 200 PPM IN DIET FOR 48 WK (STUDY DURATION: 48 WK), Dose: 0, 25, 100, 200 PPM IN DIET FOR 48 WK (STUDY DURATION: 48 WK), Tumor Site: Type of Lesion: MAMMARY GLAND: TUMOR): active; positive
- carcinogen call (Species: RAT, Strain/Sex: SPRAGUE-DAWLEY/FEMALE, Route: ORAL, Dose: 0, 25, 100, 200 PPM IN DIET FOR DURATION OF STUDY (STUDY DURATION: 48 WK), Dose: 0, 25, 100, 200 PPM IN DIET FOR DURATION OF STUDY (STUDY DURATION: 48 WK), Tumor Site: Type of Lesion: MAMMARY GLAND: TUMOR): active; positive
- carcinogen call (Species: RAT, Strain/Sex: SPRAGUE-DAWLEY/FEMALE, Route: ORAL, Dose: 0, 25, 100 PPM IN DIET FROM WEANING TO 47 WK OF AGE (STUDY DURATION: 47 WK), Dose: 0, 25, 100 PPM IN DIET FROM WEANING TO 47 WK OF AGE (STUDY DURATION: 47 WK), Tumor Site: Type of Lesion: MAMMARY GLAND: TUMOR): active; positive
- carcinogen call (Species: RAT, Strain/Sex: SPRAGUE-DAWLEY/FEMALE, Route: ORAL, Dose: 0, 75 MG/KG IN 5 ML CORN OIL 1/D ON DAYS 1-5 AND 8-12 OF STUDY FOLLOWED 2 DAYS LATER BY A HIGH-FAT DIET FOR DURATION OF, Tumor Site: Type of Lesion: MAMMARY GLAND: TUMOR): active; positive
- carcinogen call (Species: RAT, Strain/Sex: SPRAGUE-DAWLEY/FEMALE, Route: TRANSPLACENTAL, ORAL, Dose: 0, 100 PPM IN DIET OF MOTHERS BEGINNING 4 WK BEFORE MATING AND CONTINUING THROUGH LACTATION THEN OFFSPRING ADMINISTERED, Tumor Site: Type of Lesion: MAMMARY GLAND: TUMOR): active; positive
- carcinogen call (Species: RAT, Strain/Sex: SPRAGUE-DAWLEY/MALE, Route: ORAL, Dose: 0, 25, 100 PPM IN DIET FROM WEANING TO 47 WK OF AGE (STUDY DURATION: 47 WK), Dose: 0, 25, 100 PPM IN DIET FROM WEANING TO 47 WK OF AGE (STUDY DURATION: 47 WK)): inactive; negative
- carcinogen call (Species: RAT, Strain/Sex: SPRAGUE-DAWLEY/MALE, Route: TRANSPLACENTAL, ORAL, Dose: 0, 100 PPM IN DIET OF MOTHERS BEGINNING 4 WK BEFORE MATING AND CONTINUING THROUGH LACTATION THEN OFFSPRING ADMINISTERED): inactive; negative
- carcinogen call (Species: RAT, Strain/Sex: STRAIN-CD/FEMALE, Route: GAVAGE, Dose: 0, 50 UMOL IN 0.5 ML TRIOCTANOIN 1/WK FOR 8 WK (STUDY DURATION: 49 WK), Tumor Site: Type of Lesion: MAMMARY GLAND: FIBROADENOMA, ADENOCARCINOMA): active; positive
